From ChEMBL document CHEMBL5316328, “Discovery of AXL Degraders with Improved Potencies in Triple-Negative Breast Cancer (TNBC) Cells” (J Med Chem, 2023)
Calls of active or inactive are those of the source. The calls are words filed in the database; no cut-off is given here.

Tests used:
[1] = target: T1, Protein cereblon/Tyrosine-protein kinase receptor UFO (Homo sapiens, UniProt P30530+Q96SW2); assay: PROTAC activity at CRBN/AXL in human MDA-MB-231 cells assessed as induction of AXL degradation incubated for 24 hrs by immunoblot analysis; format: cell-based
[2] = target: T1, Protein cereblon/Tyrosine-protein kinase receptor UFO; assay: PROTAC activity at CRBN/AXL in human MDA-MB-231 cells assessed as induction of AXL degradation by measuring half-life of AXL incubated upto 20 hrs in the presence of cycloheximide by Western blot analysis; format: cell-based
Target sequence in this assay (P30530 26-894 limits assumed): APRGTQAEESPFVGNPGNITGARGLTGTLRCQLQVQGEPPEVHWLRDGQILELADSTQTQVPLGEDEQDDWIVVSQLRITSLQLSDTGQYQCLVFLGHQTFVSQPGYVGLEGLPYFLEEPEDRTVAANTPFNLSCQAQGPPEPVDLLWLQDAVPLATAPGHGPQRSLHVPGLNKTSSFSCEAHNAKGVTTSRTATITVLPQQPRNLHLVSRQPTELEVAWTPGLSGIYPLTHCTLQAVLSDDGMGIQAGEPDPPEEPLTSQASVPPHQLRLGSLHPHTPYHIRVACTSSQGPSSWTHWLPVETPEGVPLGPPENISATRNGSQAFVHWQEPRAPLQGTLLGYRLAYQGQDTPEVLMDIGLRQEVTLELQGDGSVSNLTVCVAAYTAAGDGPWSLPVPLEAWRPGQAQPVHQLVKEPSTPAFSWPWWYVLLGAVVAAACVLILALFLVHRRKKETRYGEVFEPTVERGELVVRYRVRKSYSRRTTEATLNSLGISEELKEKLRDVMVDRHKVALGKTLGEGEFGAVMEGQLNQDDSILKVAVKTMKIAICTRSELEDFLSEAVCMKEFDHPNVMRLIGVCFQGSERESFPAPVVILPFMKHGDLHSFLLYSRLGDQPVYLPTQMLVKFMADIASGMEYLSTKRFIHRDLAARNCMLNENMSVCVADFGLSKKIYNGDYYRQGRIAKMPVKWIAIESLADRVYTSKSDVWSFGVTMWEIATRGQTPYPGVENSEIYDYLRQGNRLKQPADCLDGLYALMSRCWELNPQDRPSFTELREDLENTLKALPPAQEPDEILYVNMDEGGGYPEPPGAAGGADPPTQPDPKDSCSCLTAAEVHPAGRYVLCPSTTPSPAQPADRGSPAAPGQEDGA
Target sequence in this assay (Q96SW2 whole entry partner): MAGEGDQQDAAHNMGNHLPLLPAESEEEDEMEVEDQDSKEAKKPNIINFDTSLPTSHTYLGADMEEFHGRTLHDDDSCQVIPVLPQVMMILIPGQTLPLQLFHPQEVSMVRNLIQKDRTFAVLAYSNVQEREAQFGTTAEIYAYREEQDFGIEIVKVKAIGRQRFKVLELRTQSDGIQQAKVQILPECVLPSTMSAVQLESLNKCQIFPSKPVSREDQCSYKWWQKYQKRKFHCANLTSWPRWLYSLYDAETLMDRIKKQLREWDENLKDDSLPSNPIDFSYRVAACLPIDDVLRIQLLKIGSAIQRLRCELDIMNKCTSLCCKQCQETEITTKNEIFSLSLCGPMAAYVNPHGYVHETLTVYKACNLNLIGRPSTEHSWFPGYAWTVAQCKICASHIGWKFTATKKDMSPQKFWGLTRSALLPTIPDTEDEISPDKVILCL

[3] = target: T1, Protein cereblon/Tyrosine-protein kinase receptor UFO; assay: PROTAC activity at CRBN/AXL in human MDA-MB-231 cells assessed as induction of AXL degradation incubated upto 20 hrs in the presence of cycloheximide by Western blot analysis; format: cell-based
Target sequence in this assay (P30530 26-894 limits assumed): as the sequence (P30530 26-894 limits assumed) above
Target sequence in this assay (Q96SW2 whole entry partner): as the sequence (Q96SW2 whole entry partner) above

[4] = target: T1, Protein cereblon/Tyrosine-protein kinase receptor UFO; assay: PROTAC activity at CRBN/AXL in human MDA-MB-231 cells assessed as induction of AXL degradation at 40 nM by Western blot analysis; format: cell-based; details: time <= 72.0 hrs, TDE = time-dependent effect
Target sequence in this assay (P30530 26-894 limits assumed): as the sequence (P30530 26-894 limits assumed) above
Target sequence in this assay (Q96SW2 whole entry partner): as the sequence (Q96SW2 whole entry partner) above

[5] = target: T2, E3 ubiquitin-protein ligase ZFP91 (Homo sapiens) (UniProt Q96JP5); assay: Induction of ZFP91 degradation in human MDA-MB-231 cells at 10 uM incubated for 24 hrs by Western blot analysis; format: cell-based
T2 sequence (whole entry): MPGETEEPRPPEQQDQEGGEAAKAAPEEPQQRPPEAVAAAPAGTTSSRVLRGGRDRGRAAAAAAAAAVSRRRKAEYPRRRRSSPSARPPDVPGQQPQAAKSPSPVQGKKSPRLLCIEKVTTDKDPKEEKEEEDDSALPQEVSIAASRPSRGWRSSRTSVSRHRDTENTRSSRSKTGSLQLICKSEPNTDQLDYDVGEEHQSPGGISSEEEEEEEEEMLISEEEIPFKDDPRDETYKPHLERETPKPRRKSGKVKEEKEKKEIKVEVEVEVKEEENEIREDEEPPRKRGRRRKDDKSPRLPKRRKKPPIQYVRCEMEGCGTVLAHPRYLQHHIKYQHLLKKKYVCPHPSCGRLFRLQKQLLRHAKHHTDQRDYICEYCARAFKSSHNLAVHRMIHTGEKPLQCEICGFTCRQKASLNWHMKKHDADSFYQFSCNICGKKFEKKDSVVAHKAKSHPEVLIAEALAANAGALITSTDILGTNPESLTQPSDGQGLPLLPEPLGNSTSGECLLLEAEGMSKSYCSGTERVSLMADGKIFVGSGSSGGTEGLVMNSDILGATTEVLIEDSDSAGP

[6] = target: T1, Protein cereblon/Tyrosine-protein kinase receptor UFO; assay: PROTAC activity at CRBN/AXL in human MDA-MB-231 cells assessed as induction of AXL degradation at 40 nM preincubated with MLN-4924 for 2 hrs followed by compound treatment and measured after 24 hrs by Western blot analysis; format: cell-based
Target sequence in this assay (P30530 26-894 limits assumed): as the sequence (P30530 26-894 limits assumed) above
Target sequence in this assay (Q96SW2 whole entry partner): as the sequence (Q96SW2 whole entry partner) above

[7] = target: T1, Protein cereblon/Tyrosine-protein kinase receptor UFO; assay: PROTAC activity at CRBN/AXL in human MDA-MB-231 cells assessed as induction of AXL degradation by measuring ubiquitination of AXL at 40 nM preincubated with MG-132 for 2 hrs followed by compound treatment and measured after 24 hrs by coimmunoprecipitation analysis; format: cell-based
Target sequence in this assay (P30530 26-894 limits assumed): as the sequence (P30530 26-894 limits assumed) above
Target sequence in this assay (Q96SW2 whole entry partner): as the sequence (Q96SW2 whole entry partner) above

MDA-MB-436 = assay: Antiproliferative activity against human MDA-MB-436 cells expressing AXL assessed as inhibition of cell growth incubated for 72 hrs by CCK8 assay; format: functional, cell-based; details: MDA-MB-436, 72 h
[8] = target: T1, Protein cereblon/Tyrosine-protein kinase receptor UFO; assay: PROTAC activity at CRBN/AXL in human MDA-MB-231 cells assessed as induction of AXL degradation at 10 nM preincubated with more than 5 uM of N-(4-((6,7-dimethoxyquinazolin-4-yl)oxy)-3-fluorophenyl)-6-ethyl-1,2-dimethyl-4-oxo-1,4-dihydroquinoline-3-carboxamide for 6 hrs followed by compound treatment and measured after 24 hrs by Western blot analysis; format: cell-based
Target sequence in this assay (P30530 26-894 limits assumed): as the sequence (P30530 26-894 limits assumed) above
Target sequence in this assay (Q96SW2 whole entry partner): as the sequence (Q96SW2 whole entry partner) above

MDA-MB-231 [9] = assay: Induction of cell cycle arrest in human MDA-MB-231 cells assessed as G0/G1 phase cells at 100 nM incubated for 24 hrs by PI staining based flow cytometric analysis (reference value: 63.32 to 64.94%); format: functional
MDA-MB-231 [10] = assay: Induction of cell cycle arrest in human MDA-MB-231 cells assessed as G0/G1 phase cells at 300 nM incubated for 24 hrs by PI staining based flow cytometric analysis (reference value: 63.32 to 64.94%); format: functional
MDA-MB-231 [11] = assay: Induction of cell cycle arrest in human MDA-MB-231 cells assessed as accumulation of cell at G2/M phase at 300 nM incubated for 24 hrs by PI staining based flow cytometric analysis (reference value: 24.34 to 24.44%); format: functional
[12] = target: Serine/threonine-protein kinase AKT (Homo sapiens) (UniProt P31751+Q9Y243+P31749); assay: Inhibition of AKT phosphorylation in human MDA-MB-231 incubated for 18 hrs by Western blot analysis; format: cell-based; details: dose 1.2-100 nM
Chain of Serine/threonine-protein kinase AKT (Homo sapiens) (P31749 whole entry, looked up): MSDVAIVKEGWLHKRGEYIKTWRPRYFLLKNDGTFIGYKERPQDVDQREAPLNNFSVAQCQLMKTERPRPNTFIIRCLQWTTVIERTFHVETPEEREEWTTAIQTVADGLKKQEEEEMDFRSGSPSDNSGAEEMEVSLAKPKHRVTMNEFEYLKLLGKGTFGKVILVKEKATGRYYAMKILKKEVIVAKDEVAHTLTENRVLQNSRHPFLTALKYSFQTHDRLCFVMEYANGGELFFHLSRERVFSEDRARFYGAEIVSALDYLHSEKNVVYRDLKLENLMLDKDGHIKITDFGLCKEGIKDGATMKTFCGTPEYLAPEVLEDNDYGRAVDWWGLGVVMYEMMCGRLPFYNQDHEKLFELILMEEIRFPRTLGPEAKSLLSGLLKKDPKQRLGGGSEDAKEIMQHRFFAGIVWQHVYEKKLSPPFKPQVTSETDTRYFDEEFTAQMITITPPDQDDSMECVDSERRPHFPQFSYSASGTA
Chain of Serine/threonine-protein kinase AKT (Homo sapiens) (P31751 whole entry, looked up): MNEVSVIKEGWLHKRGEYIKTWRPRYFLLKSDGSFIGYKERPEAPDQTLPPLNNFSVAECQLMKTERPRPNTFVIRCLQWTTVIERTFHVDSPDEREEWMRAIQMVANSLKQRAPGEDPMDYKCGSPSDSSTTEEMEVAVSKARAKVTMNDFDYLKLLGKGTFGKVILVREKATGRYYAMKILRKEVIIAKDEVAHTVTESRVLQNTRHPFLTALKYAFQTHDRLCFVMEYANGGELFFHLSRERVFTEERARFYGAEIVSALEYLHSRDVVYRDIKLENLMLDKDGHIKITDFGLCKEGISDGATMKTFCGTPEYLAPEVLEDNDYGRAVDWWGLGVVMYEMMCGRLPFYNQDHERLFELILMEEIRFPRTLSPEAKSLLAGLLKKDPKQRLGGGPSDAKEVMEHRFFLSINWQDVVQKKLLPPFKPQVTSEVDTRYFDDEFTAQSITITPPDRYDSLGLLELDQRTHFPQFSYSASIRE
Chain of Serine/threonine-protein kinase AKT (Homo sapiens) (Q9Y243 whole entry, looked up): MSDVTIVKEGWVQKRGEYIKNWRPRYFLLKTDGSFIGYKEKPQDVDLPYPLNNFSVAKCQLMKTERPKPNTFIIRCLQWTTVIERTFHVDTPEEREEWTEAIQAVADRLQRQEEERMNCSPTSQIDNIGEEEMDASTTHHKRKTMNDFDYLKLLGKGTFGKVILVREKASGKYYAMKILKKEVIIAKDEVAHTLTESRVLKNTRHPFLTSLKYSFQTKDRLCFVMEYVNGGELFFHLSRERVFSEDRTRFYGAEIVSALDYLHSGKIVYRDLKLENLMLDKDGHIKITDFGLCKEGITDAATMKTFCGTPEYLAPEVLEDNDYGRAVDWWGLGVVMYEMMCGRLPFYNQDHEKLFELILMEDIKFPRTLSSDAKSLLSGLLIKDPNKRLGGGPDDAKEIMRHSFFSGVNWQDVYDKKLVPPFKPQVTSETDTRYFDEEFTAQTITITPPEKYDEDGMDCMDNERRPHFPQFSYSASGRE

MDA-MB-231 [13] = assay: Induction of apoptosis in human MDA-MB-231 cells assessed as viable cells at 100 nM incubated for 48 hrs by Annexin V-PE staining based flow cytometric analysis (reference value: 92.59 to 92.71%); format: functional; details: read-out: Activity
MDA-MB-231 [14] = assay: Induction of apoptosis in human MDA-MB-231 cells assessed as late apoptotic cells at 100 nM incubated for 48 hrs by Annexin V-PE staining based flow cytometric analysis (reference value: 0.32 to 0.82%); format: functional
MDA-MB-231 [15] = assay: Induction of apoptosis in human MDA-MB-231 cells assessed as early apoptotic cells at 300 nM incubated for 48 hrs by Annexin V-PE staining based flow cytometric analysis (reference value: 3.95 to 3.74%); format: functional
MDA-MB-231 [16] = assay: Induction of apoptosis in human MDA-MB-231 cells assessed as necrotic cells at 300 nM incubated for 48 hrs by Annexin V-PE staining based flow cytometric analysis (reference value: 2.64 to 3.23%); format: functional
MDA-MB-231 [17] = assay: Induction of apoptosis in human MDA-MB-231 cells assessed as downregulation of caspase-9 expression by Western blot analysis; format: functional, cell-based; details: dose 11.1-300 nM
MDA-MB-231 [18] = assay: Inhibition of migration in human MDA-MB-231 cells incubated for 18 hrs by transwell assay; format: functional, cell-based; details: dose 3.7-100 nM
MDA-MB-231 [19] = assay: Antitumor activity against human MDA-MB-231 cells xenografted in Balb/c nude mouse assessed as tumor growth inhibition at 10 mg/kg, ip administered for 22 days and measured 24 hrs post last dose relative to control; format: functional; details: MDA-MB-231, 552 h, time 23 day, read-out: TGI
[20] = Toxicity in Balb/c nude mouse xenografted with human MDA-MB-231 cells assessed as mortality at 10 to 20 mg/kg, ip administered for 22 days and measured 24 hrs post last dose; format: organism-based; details: in vivo, 552 h, dose 10-20 mg/kg, time 23 day
Mus musculus = assay: In vivo PROTAC activity at CRBN/AXL in human MDA-MB-231 cells xenografted Balb/c mouse assessed as degradation of AXL in tumor at 10 to 20 mg/kg, ip administered for 22 days and measured 24 hrs post last dose by Western blot analysis; format: functional, organism-based; details: dose 10-20 mg/kg, time 23.0 day
Homo sapiens = organism: Homo sapiens; assay: Antitumor activity against patient-derived breast cancer organoid assessed as decrease in organoid size at 5 uM incubated for 120 hrs by bright-field imaging microscopic analysis; format: functional, tissue-based

## CCc1ccc2c(c1)c(=O)c(C(=O)Nc1ccc(Oc3ncnc4cc(OCCCCCC(=O)Nc5ccc6c(c5)CN(C5CCC(=O)NC5=O)C6=O)c(OC)cc34)c(F)c1)c(C)n2C (centres undefined)
[1]
  Activity: Dose-Dependent Effect
  EC50: 5 nM
[2]
  T1/2: 8 h
[3]
  Activity: Active
[4]
  Activity: Tde
[5]
  Activity: inactive
[6]
  Activity: inactive
[7]
  Activity: inactive
MDA-MB-436
  IC50: 5 nM
[8]
  Activity: inactive
MDA-MB-231 [9]
  Activity: 46.81%
MDA-MB-231 [10]
  Activity: 47.51%
MDA-MB-231 [11]
  Activity: 29.55%
[12]
  inhibition: Dose-Dependent Effect
MDA-MB-231 [13]
  viability at 0.1 µM: 83.4%
MDA-MB-231 [14]
  Activity: 0.88%
MDA-MB-231 [15]
  Activity: 20.49%
MDA-MB-231 [16]
  Activity: 4.59%
MDA-MB-231 [17]
  Activity: Dose-Dependent Effect
MDA-MB-231 [18]
  inhibition: Dose-Dependent Effect
MDA-MB-231 [19]
  inhibition in vivo at 10 mg/kg: 40.9%
[20]
  Activity: Non-Toxic
Mus musculus
  Activity: Active
Homo sapiens
  Activity: Active
